Target: T1, c-kit (Homo sapiens, UniProt P10721)
T1 construct: human Mo7e cells which endogenously express c-kit; endogenous in cells; host or cells: human Mo7e cells (SCF-dependent promegakaryocytic leukemia line)
Assay: Mo7e cell proliferation assay (SCF dependent proliferation)
Format: cell-based
Details: Table 1; human Mo7e cells stimulated with human recombinant SCF, 48 h, CellTiter Glo; 1% FBS (footnote)
Method: Compounds of Formula (I) and Formula (II) provided herein were assayed to measure their capacity to inhibit c-kit and PDGFR kinases using the appropriate assay described below: c-Kit inhibition was evaluated using the Mo7e cell proliferation assay, and PDGFR inhibition was evaluated using the Rat A10 cell proliferation assay and the Human TGHA-VSMC cell proliferation assay.
The compounds of Table 1 and Table 2 were tested for inhibition of SCF dependent proliferation using human Mo7e cells which endogenously express c-kit in a 384 well format. […] After 48 hours of incubation at 37° C., cell viability was measured by adding 25 uL of CellTiter Glo (Promega) to the cells and the luminescence was measured by a CLIPR CCD camera (Molecular Devices).
The IC50 value is given as that concentration of the test compound in question that provoke a response halfway between the baseline and maximum responses.

T1 sequence (P10721 26-976): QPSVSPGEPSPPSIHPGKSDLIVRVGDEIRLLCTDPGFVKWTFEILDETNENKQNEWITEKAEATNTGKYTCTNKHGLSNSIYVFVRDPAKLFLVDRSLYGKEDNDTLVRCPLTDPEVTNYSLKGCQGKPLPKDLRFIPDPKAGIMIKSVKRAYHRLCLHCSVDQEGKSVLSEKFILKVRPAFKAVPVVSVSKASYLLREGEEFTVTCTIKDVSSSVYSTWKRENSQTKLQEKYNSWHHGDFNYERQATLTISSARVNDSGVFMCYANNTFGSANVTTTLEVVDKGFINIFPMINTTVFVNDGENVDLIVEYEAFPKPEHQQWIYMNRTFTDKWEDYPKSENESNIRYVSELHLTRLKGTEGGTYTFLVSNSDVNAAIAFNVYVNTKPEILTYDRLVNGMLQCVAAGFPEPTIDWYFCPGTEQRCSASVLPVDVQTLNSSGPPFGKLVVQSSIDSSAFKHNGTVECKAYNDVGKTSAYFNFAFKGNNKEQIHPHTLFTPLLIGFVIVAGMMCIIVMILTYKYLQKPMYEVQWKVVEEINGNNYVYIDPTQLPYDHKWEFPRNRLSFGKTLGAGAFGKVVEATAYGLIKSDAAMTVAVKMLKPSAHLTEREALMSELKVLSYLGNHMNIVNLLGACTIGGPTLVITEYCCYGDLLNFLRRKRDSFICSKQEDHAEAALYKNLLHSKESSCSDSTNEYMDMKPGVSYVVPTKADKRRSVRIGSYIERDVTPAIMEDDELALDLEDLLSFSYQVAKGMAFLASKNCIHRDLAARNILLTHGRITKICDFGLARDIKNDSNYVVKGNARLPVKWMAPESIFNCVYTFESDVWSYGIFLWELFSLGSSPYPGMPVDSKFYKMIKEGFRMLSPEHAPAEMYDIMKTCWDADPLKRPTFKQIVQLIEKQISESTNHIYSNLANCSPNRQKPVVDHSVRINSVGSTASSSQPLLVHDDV

Row | IC50 [nM] | SMILES
1 | 32 | CC(=O)CCc1nc(-c2ccc(C)c(NC(=O)c3cnc4ccccn34)c2)no1 [F5]
2 | 81 | Cc1ccc(-c2noc(COCCOC(C)C)n2)cc1NC(=O)c1cnc2ccccn12 [F33, N-(5-(5-((2-isopropoxyethoxy)methyl)-1,2,4-oxadiazol-3-yl)-2-methylphenyl)imidazo[1,2-a]pyridine-3-carboxamide]
3 | 39 | Cc1ccc(-c2noc(COCC(F)F)n2)cc1NC(=O)c1cnc2ccccn12 [F94, N-(5-(5-((2,2-difluoroethoxy)methyl)-1,2,4-oxadiazol-3-yl)-2-methylphenyl)imidazo[1,2-a]pyridine-3-carboxamide]
4 | 92 | COCCOCc1nc(-c2ccc(C)c(NC(=O)c3cnc4ccc(F)cn34)c2)no1 [F37]
5 | 56 | Cc1ccc(-c2noc(CNC(=O)C(F)(F)F)n2)cc1NC(=O)c1cnc2ccccn12 [F24, N-(2-methyl-5-(5-((2,2,2-trifluoroacetamido)methyl)-1,2,4-oxadiazol-3-yl)phenyl)imidazo[1,2-a]pyridine-3-carboxamide]
6 | 53 | Cc1nc(-c2ccc(C)c(NC(=O)c3cnc4ccc(-c5cccnc5C)cn34)c2)no1 [F82]
7 | 54 | Cc1ccc(-c2noc(CCC(C)(O)C(F)(F)F)n2)cc1NC(=O)c1cnc2ccc(F)cn12 (stereo not shown) [F71]
8 | 9 | [2H]C([2H])([2H])c1ccn2c(C(=O)Nc3cc(-c4noc(COCC(F)(F)F)n4)ccc3C)cnc2c1 [F78, 7-methyl-d3-N-(2-methyl-5-(5-((2,2,2-trifluoroethoxy)methyl)-1,2,4-oxadiazol-3-yl)phenyl)imidazo[1,2-a]pyridine-3-carboxamide]
9 | 49 | Cc1ccn2c(C(=O)Nc3cc(-c4noc(CC[C@@](C)(O)C(F)(F)F)n4)ccc3C)cnc2c1 (single isomer, unassigned) [F76]
10 | 8 | Cc1ccc(-c2noc(CNC(=O)OC(C)(C)C)n2)cc1NC(=O)c1cnc2ccccn12 [F6]
11 | 54 | CC(=O)c1sc(-c2ccc3ncc(C(=O)Nc4cc(-c5noc(C)n5)ccc4C)n3c2)nc1C [F256, 6-(5-acetyl-4-methylthiazol-2-yl)-N-(2-methyl-5-(5-methyl-1,2,4-oxadiazol-3-yl)phenyl)imidazo[1,2-a]pyridine-3-carboxamide]
12 | 13 | Cc1ccn2c(C(=O)Nc3cc(-c4noc(CCC(O)C(F)(F)F)n4)ccc3C)cnc2c1 (stereo not shown) [F253]
13 | 7 | Cc1nc(-c2ccc(C)c(NC(=O)c3cnc4ccc(-c5sc(C)nc5C)cn34)c2)no1 [F48]
14 | 58 | Cc1nc(-c2ccc(C)c(NC(=O)c3cnc4ccc(-c5sc(C(=O)NCCO)nc5C)cn34)c2)no1 [F263, N-(2-hydroxyethyl)-4-methyl-5-(3-((2-methyl-5-(5-methyl-1,2,4-oxadiazol-3-yl)phenyl)carbamoyl)imidazo[1,2-a]pyridin-6-yl)thiazole-2-carboxamide]
15 | 8 | Cc1ccn2c(C(=O)Nc3cc(-c4noc(CCC(C)(OC(=O)[C@H](C)N)C(F)(F)F)n4)ccc3C)cnc2c1 (stereo partly drawn) [F271, (2S)-1,1,1-trifluoro-2-methyl-4-(3-(4-methyl-3-(7-methylimidazo[1,2-a]pyridine-3-carboxamido)phenyl)-1,2,4-oxadiazol-5-yl)butan-2-yl 2-aminopropanoate]
16 | 95 | Cc1nc(-c2ccc(C)c(NC(=O)c3cnc4ccc(-c5cnn(CCN6CCOCC6)c5)cn34)c2)no1 [F51]
17 | 82 | Cc1ccc(-c2noc(CC(C)(O)C(F)(F)F)n2)cc1NC(=O)c1cnc2ccccn12 (stereo not shown) [F15]
18 | 9 | Cc1ccc(-c2noc(CCC(C)(C)O)n2)cc1NC(=O)c1cnc2cc(-c3ccn(C)n3)ccn12 [F42]
19 | 70 | COc1ccc2ncc(C(=O)Nc3cc(-c4noc(CCC(C)(C)O)n4)ccc3C)n2c1 [F56]
20 | 50 | Cc1nc(-c2ccc(C)c(NC(=O)c3cnc4ccc(-c5cscn5)cn34)c2)no1 [F47]
21 | 38 | Cc1nc(-c2ccc(C)c(NC(=O)c3cnc4ccc(-c5c(C)nn(S(C)(=O)=O)c5C)cn34)c2)no1 [F105, 6-(3,5-dimethyl-1-(methylsulfonyl)-1H-pyrazol-4-yl)-N-(2-methyl-5-(5-methyl-1,2,4-oxadiazol-3-yl)phenyl)imidazo[1,2-a]pyridine-3-carboxamide]
22 | 25 | Cc1nc(-c2ccc(C)c(NC(=O)c3cnc4ccc(-c5cnn(C)c5)cn34)c2)no1 [F44]
23 | 61 | CCS(=O)(=O)NCc1nc(-c2ccc(C)c(NC(=O)c3cnc4ccccn34)c2)no1 [F20]
24 | 11 | Cc1ccc(-c2noc(COC(C)C(F)(F)F)n2)cc1NC(=O)c1cnc2ccccn12 (stereo not shown) [F96]
25 | 83 | CCOC(=O)c1nc(C)c(-c2ccc3ncc(C(=O)Nc4cc(-c5noc(C)n5)ccc4C)n3c2)s1 [F261, ethyl 4-methyl-5-(3-((2-methyl-5-(5-methyl-1,2,4-oxadiazol-3-yl)phenyl)carbamoyl)imidazo[1,2-a]pyridin-6-yl)thiazole-2-carboxylate]
26 | 72 | CCOCCOCc1nc(-c2ccc(C)c(NC(=O)c3cnc4ccccn34)c2)no1 [F32]
27 | 58 | Cc1ccc(-c2noc(CCC(C)(C)O)n2)cc1NC(=O)c1cnc2cc(N3CCOCC3)ccn12 [F60]
28 | 79 | Cc1ccc(-c2noc(CNS(=O)(=O)C(C)C)n2)cc1NC(=O)c1cnc2ccccn12 [F25]
29 | 100 | Cc1ccc(-c2noc(N(C)CC(C)(C)O)n2)cc1NC(=O)c1cnc2cc(F)ccn12 [F65]
30 | 22 | Cc1ccc(-c2noc(CC(O)(C(F)(F)F)C(F)(F)F)n2)cc1NC(=O)c1cnc2ccccn12 [F16]

Row | SMILES | IC50 [nM]
31 | CCOCCc1nc(-c2ccc(C)c(NC(=O)c3cnc4ccccn34)c2)no1 [F10] | 42
32 | COP(=O)(OC)OC(C)(CCc1nc(-c2ccc(C)c(NC(=O)c3cnc4cc(C)ccn34)c2)no1)C(F)(F)F (single isomer, unassigned) [F267] | 56

Same assay, conditions: Table 2, values marked *: 20% FBS instead of 1% FBS

Row | IC50 [nM] | SMILES
33 | > 6000 | Cc1ccc(-c2nc(CC(=O)N(C)C)no2)cc1NC(=O)c1cnc2ccccn12 [F233]

Same assay, conditions: Table 2; human Mo7e cells stimulated with human recombinant SCF, 48 h, CellTiter Glo; 1% FBS (footnote)

Row | IC50 [nM] | SMILES
34 | 104 | Cc1ccc(-c2noc(COCCOCC(F)(F)F)n2)cc1NC(=O)c1cnc2ccc(F)cn12 [F175]
35 | 156 | Cc1ccc(-c2noc(CN(C)S(C)(=O)=O)n2)cc1NC(=O)c1cnc2ccccn12 [F144, N-(2-methyl-5-(5-((N-methylmethylsulfonamido)methyl)-1,2,4-oxadiazol-3-yl)phenyl)imidazo[1,2-a]pyridine-3-carboxamide]
36 | 803 | Cc1ccc(-c2noc(CCC(N)=O)n2)cc1NC(=O)c1cnc2ccccn12 [F117, N-(5-(5-(3-amino-3-oxopropyl)-1,2,4-oxadiazol-3-yl)-2-methylphenyl)imidazo[1,2-a]pyridine-3-carboxamide]
37 | 381 | Cc1ccc(-c2noc(CC(=O)O)n2)cc1NC(=O)c1cnc2ccccn12 [F146]
38 | 795 | CC(=O)N[C@@H](C)c1nc(-c2ccc(C)c(NC(=O)c3cnc4ccccn34)c2)no1 [F213]
39 | 356 | CC(=O)CCc1ccc2ncc(C(=O)Nc3cc(-c4noc(C)n4)ccc3C)n2c1 [F180]
40 | 294 | Cc1ccc(-c2noc(C[C@@H](C)NC(=O)OC(C)(C)C)n2)cc1NC(=O)c1cnc2ccccn12 [F142]
41 | 364 | Cc1ccc(-c2noc(CCCNC(=O)OC(C)(C)C)n2)cc1NC(=O)c1cnc2ccccn12 [F111]
42 | 108 | Cc1ccn2c(C(=O)Nc3cc(-c4noc(CCC(C)(C)OC(=O)CN)n4)ccc3C)cnc2c1 [F249]
43 | 867 | CC(=O)NCc1nc(-c2ccc(C)c(NC(=O)c3cnc4ccccn34)c2)no1 [F141]
44 | 103 | COCCOCc1nc(-c2ccc(C)c(NC(=O)c3cnc4ccc(OC)cn34)c2)no1 [F188]
45 | 166 | Cc1nc(-c2ccc(C)c(NC(=O)c3cnc4ccc(-c5nc(C)c(C(C)O)s5)cn34)c2)no1 (stereo not shown) [F236]
46 | 208 | COC(=O)NC(C)(C)c1nc(-c2ccc(C)c(NC(=O)c3cnc4ccccn34)c2)no1 [F148]
47 | 173 | Cc1ccc(-c2noc(CF)n2)cc1NC(=O)c1cnc2ccccn12 [F161]
48 | 228 | Cc1nc(-c2ccc(C)c(NC(=O)c3cnc4ccc(-c5ccnn5C)cn34)c2)no1 [F208]
49 | 174 | Cc1ccc(-c2noc(CCCN)n2)cc1NC(=O)c1cnc2ccccn12 [F112]
50 | 462 | COC(=O)NCc1nc(-c2ccc(C)c(NC(=O)c3cnc4cc(C(F)(F)F)ccn34)c2)no1 [F170]
51 | 140 | Cc1nc(-c2ccc(C)c(NC(=O)c3cnc4ccc(-c5sc(C(=O)NCCN6CCN(C)CC6)nc5C)cn34)c2)no1 [F248]
52 | 409 | Cc1ccc(-c2noc(CCNS(C)(=O)=O)n2)cc1NC(=O)c1cnc2ccccn12 [F114]
53 | 319 | COCC(=O)NCc1nc(-c2ccc(C)c(NC(=O)c3cnc4ccccn34)c2)no1 [F132]
54 | 196 | Cc1nc(-c2ccc(C)c(NC(=O)c3cnc4ccc(-c5cncnc5)cn34)c2)no1 [F206]
55 | 367 | Cc1ccc(-c2noc(CCCS(N)(=O)=O)n2)cc1NC(=O)c1cnc2ccccn12 [F110]
56 | 126 | Cc1ccc(-c2noc(CCC(C)(C)O)n2)cc1NC(=O)c1cnc2ccc(N3CCOCC3)cn12 [F194]
57 | 326 | COC(=O)NCCc1nc(-c2ccc(C)c(NC(=O)c3cnc4ccccn34)c2)no1 [F122]
58 | 2180 | Cc1ccc(-c2noc(CCN)n2)cc1NC(=O)c1cnc2ccccn12 [F226]
59 | 192 | Cc1ccc(-c2noc(COCCO)n2)cc1NC(=O)c1cnc2ccccn12 [F163]
60 | 571 | Cc1nc(-c2ccc(C)c(NC(=O)c3cnc4ccc(CCN5CCNCC5)cn34)c2)no1 [F211]
61 | 889 | Cc1ccc(-c2noc([C@H](C)N)n2)cc1NC(=O)c1cnc2ccccn12 [F125]

From US20150011508A1, “COMPOUNDS AND COMPOSITIONS AS C-KIT KINASE INHIBITORS” (priority 2011, published 2015)
